Where two headings read alike, the source gives them in different places.
Experiments:
C4-2 cells = assay: Cell-based killing assay of payloads (CellTiter-Glo), C4-2 cells; set-up: species or system human; details: 5-day incubation; for IC50: Homo sapiens, C4-2, 120 h, average ± SD where replicates; for C4-2 % Kill: at maximum concentration tested (100 − % viable cells)
Outline: (§1)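 Viability readout is CellTiter-Glo luminescence after a 5-day exposure to 10-point, threefold-diluted payloads spanning 100 nM–[…], following overnight attachment of 4000 cells/well. Four-parameter logistic fit gives IC50 in M; % kill taken at highest concentration tested.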

T47D cells = assay: Cell-based killing assay of payloads (CellTiter-Glo), T47D cells; set-up: species or system human; details: 5-day incubation; for IC50: Homo sapiens, T47D, 120 h; for T47D % Kill: at maximum concentration tested
Outline: as §1

HEK293 cells = assay: Cell-based killing assay of payloads (CellTiter-Glo), HEK293 cells; set-up: species or system human; details: 5-day incubation; for IC50: Homo sapiens, HEK293, 120 h; for HEK293 % Kill: at maximum concentration tested
Outline: as §1

HCT15 cells = assay: cells; assay type: cell-based, human; details: HCT15 cells; for HCT-15 + verapamil % Kill / HCT-15 % Kill: maximum % cell killing
Outline: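 Five-day exposure of 1000 HCT15 cells/well to threefold payload dilutions, run both plus and minus verapamil (5 ug/mL) in RPMI with 10% FBS. ATP luminescence (CellTiter-Glo) gives viability; four-parameter logistic fit of 10 points yields IC50, and 100 − % viable at highest dose gives % kill.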

HL60/MX2 cells = assay: Cytotoxicity in panel of MDR cell lines, HL60/MX2 (72 h and 144 h); assay type: cell-based, human; details: for IC50: Homo sapiens
Outline: (§2)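 Cells were seeded at 1000 per well and grown overnight, then exposed to 1:3 serially diluted payloads for 72 h and 144 h. CellTiter-Glo reagent was added for 10 min at room temperature, and luminescence was read. IC50 values came from a four-parameter logistic fit.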

MES-SA/MX2 cells = assay: Cytotoxicity in panel of MDR cell lines, MES-SA/MX2 (72 h and 144 h); assay type: cell-based, human; details: for IC50: Homo sapiens
Outline: as §2

HCT-15 cells = assay: Cytotoxicity in panel of MDR cell lines, HCT-15 (72 h and 144 h); assay type: cell-based, human; details: for IC50: Homo sapiens
Outline: as §2

H69AR cells = assay: Cytotoxicity in panel of MDR cell lines, H69AR (72 h and 144 h); assay type: cell-based, human; details: for IC50: Homo sapiens
Outline: as §2

[1] = with 5 ug/mL Verapamil, read-out: HCT-15 + verapamil IC50
[2] = Homo sapiens, HCT-15, without Verapamil, read-out: HCT-15 IC50
[3] = 72 h incubation, read-out: HL60/MX2 IC50 72 h
[4] = 144 h incubation, read-out: HL60/MX2 IC50 144 h
[5] = 72 h incubation, read-out: MES-SA/MX2 IC50 72 h
[6] = 144 h incubation, read-out: MES-SA/MX2 IC50 144 h
[7] = 72 h incubation, read-out: HCT-15 IC50 72 h
[8] = 144 h incubation, read-out: HCT-15 IC50 144 h
[9] = 72 h incubation, read-out: H69AR IC50 72 h
[10] = 144 h incubation, read-out: H69AR IC50 144 h

Row | SMILES | IC50 (C4-2 cells) | C4-2 % Kill (C4-2 cells) | IC50 (T47D cells) | T47D % Kill (T47D cells) | IC50 (HEK293 cells) | HEK293 % Kill (HEK293 cells) | HCT-15 % Kill (HCT15 cells; without Verapamil) | IC50 (HCT15 cells; [2]) | HL60/MX2 % Kill 72 h (HL60/MX2 cells; 72 h incubation) | HL60/MX2 % Kill 144 h (HL60/MX2 cells; 144 h incubation) | IC50 (HL60/MX2 cells; [3]) | IC50 (HL60/MX2 cells; [4]) | MES-SA/MX2 % Kill 72 h (MES-SA/MX2 cells; 72 h incubation) | MES-SA/MX2 % Kill 144 h (MES-SA/MX2 cells; 144 h incubation) | IC50 (MES-SA/MX2 cells; [5]) | IC50 (MES-SA/MX2 cells; [6]) | HCT-15 % Kill 72 h (HCT-15 cells; 72 h incubation) | HCT-15 % Kill 144 h (HCT-15 cells; 144 h incubation) | IC50 (HCT-15 cells; [7]) | IC50 (HCT-15 cells; [8]) | other results
1 | C#CCCCCN(C(=O)[C@@H](NC(=O)[C@H]1CCCCN1C)[C@@H](C)CC)[C@H](C[C@@H](OC(C)=O)c1nc(C(=O)N[C@@H](Cc2ccc(N)cc2)C[C@H](C)C(=O)O)cs1)C(C)C [IVg, (2S,4R)-4-({2-[(1R,3R)-1-(Acetyloxy)-3-[(2S,3S)—N-(hex-5-yn-1-yl)-3-methyl-2-{[(2R)-1-methylpiperidin-2-yl]formamido}pentanamido]-4-methylpentyl]-1,3-thiazol-4-yl}formamido)-5-(4-aminophenyl)-2-methylpentanoic acid] | 136 pM | 91.7% | 413 pM | 62.9% | 539 pM | 86.5% | 97.1% | 460 pM | 98.5% | 100% | 124 pM | < 15 pM | 99.6% | 100% | 838 pM | 999 pM | 97.6% | 99.5% | 170 pM | 223 pM | HCT-15 + verapamil % Kill (HCT15 cells; with 5 ug/mL Verapamil): 97.5%; IC50 (HCT15 cells; [1]): 328 pM; H69AR % Kill 72 h (H69AR cells; 72 h incubation): 95.7%; H69AR % Kill 144 h (H69AR cells; 144 h incubation): 99.2%; IC50 (H69AR cells; [9]): 553 pM; IC50 (H69AR cells; [10]): 571 pM
2 | CC[C@H](C)[C@H](NC(=O)[C@H]1CCCCN1C)C(=O)N(CCCCc1cn(C)nn1)[C@H](C[C@@H](OC(C)=O)c1nc(C(=O)N[C@@H](Cc2ccc(N)cc2)CC(C)(C)C(=O)O)cs1)C(C)C [IVh, (S)-4-(2-((1R,3R)-1-acetoxy-4-methyl-3-((2S,3S)-3-methyl-N-(4-(1-methyl-1H-1,2,3-triazol-4-yl)butyl)-2-((R)-1-methylpiperidine-2-carboxamido)pentanamido)pentyl)thiazole-4-carboxamido)-5-(4-aminophenyl)-2,2-dimethylpentanoic acid] | 647 pM | 82 ± 2.8% | 1860 pM | 71.6% | 1760 pM | 82.5% | 94.6 ± 3.5% | 2500 pM | 96.4% | 100% | 1110 pM | < 15 pM | 98.5% | 99.9% | 7490 pM | 8800 pM | 95.4% | 99.7% | 1520 pM | 1530 pM | H69AR % Kill 72 h (H69AR cells; 72 h incubation): 90.2%; H69AR % Kill 144 h (H69AR cells; 144 h incubation): 97.5%; IC50 (H69AR cells; [9]): 2930 pM; IC50 (H69AR cells; [10]): 3300 pM
3 | CCCCCON(C(=O)[C@@H](NC(=O)[C@H]1CCCCN1C)[C@@H](C)CC)[C@H](C[C@@H](OC(C)=O)c1nc(C(=O)N[C@@H](Cc2ccc(N)cc2)CC(C)(C)C(=O)O)cs1)C(C)C [Vb, (4S)-4-({2-[(1R,3R)-1-(Acetyloxy)-4-methyl-3-[(2S,3S)-3-methyl-2-{[(2R)-1-methylpiperidin-2-yl]formamido}-N-(pentyloxy)pentanamido]pentyl]-1,3-thiazol-4-yl}formamido)-5-(4-aminophenyl)-2,2-dimethylpentanoic acid] | 70 pM | 92.3 ± 1.7% | 144 pM | 66.5% | 289 pM | 87.8% | 98.8 ± 0.7% | 120 pM | 97.9% | 100% | < 15 pM | < 15 pM | 99.6% | 99.9% | 213 pM | 1040 pM | 97.8% | 99.7% | 62.3 pM | 127 pM | HCT-15 + verapamil % Kill (HCT15 cells; with 5 ug/mL Verapamil): 98.2 ± 0.5%; IC50 (HCT15 cells; [1]): 36.5 pM; H69AR % Kill 72 h (H69AR cells; 72 h incubation): 97%; H69AR % Kill 144 h (H69AR cells; 144 h incubation): 99.4%; IC50 (H69AR cells; [9]): 272 pM; IC50 (H69AR cells; [10]): 660 pM
4 | C#CCCCON(C(=O)[C@@H](NC(=O)[C@H]1CCCCN1C)[C@@H](C)CC)[C@H](C[C@@H](OC(C)=O)c1nc(C(=O)N[C@@H](Cc2ccccc2)CC(C)(C)C(=O)O)cs1)C(C)C [Vc, (4S)-4-({2-[(1R,3R)-1-(Acetyloxy)-4-methyl-3-[(2S,3S)-3-methyl-2-{[(2R)-1-methylpiperidin-2-yl]formamido}-N-(pent-4-yn-1-yloxy)pentanamido]pentyl]-1,3-thiazol-4-yl}formamido)-2,2-dimethyl-5-phenylpentanoic acid] | 36 pM | 91.7% | 67.7 pM | 64.9% | 113 pM | 86.9% | 97.6% | 475 pM | 98.4% | 99.9% | < 15 pM | < 15 pM | 99.2% | 100% | 89.5 pM | 299 pM | 97.6% | 99.7% | 33 pM | 67.5 pM | HCT-15 + verapamil % Kill (HCT15 cells; with 5 ug/mL Verapamil): 96.7%; IC50 (HCT15 cells; [1]): 146 pM; H69AR % Kill 72 h (H69AR cells; 72 h incubation): 96.6%; H69AR % Kill 144 h (H69AR cells; 144 h incubation): 99.4%; IC50 (H69AR cells; [9]): 154 pM; IC50 (H69AR cells; [10]): 287 pM
5 | C#CCCCON(C(=O)[C@@H](NC(=O)[C@H]1CCCCN1C)[C@@H](C)CC)[C@H](C[C@@H](OC(C)=O)c1nc(C(=O)N[C@@H](Cc2ccc(O)cc2)C[C@H](C)C(=O)O)cs1)C(C)C [Vg, (2S,4R)-4-({2-[(1R,3R)-1-(Acetyloxy)-4-methyl-3-[(2S,3S)-3-methyl-2-{[(2R)-1-methylpiperidin-2-yl]formamido}-N-(pent-4-yn-1-yloxy)pentanamido]pentyl]-1,3-thiazol-4-yl}formamido)-5-(4-hydroxyphenyl)-2-methylpentanoic acid] | 369 pM | 93.2% | 535 pM | 65.2% | 700 pM | 86.4% | 94.9% | 530 pM | 98% | 99.9% | 131 pM | 61 pM | 98% | 99.8% | 3540 pM | 5300 pM | 97.6% | 99.5% | 680 pM | 916 pM | HCT-15 + verapamil % Kill (HCT15 cells; with 5 ug/mL Verapamil): 98%; IC50 (HCT15 cells; [1]): 237 pM; H69AR % Kill 72 h (H69AR cells; 72 h incubation): 94.2%; H69AR % Kill 144 h (H69AR cells; 144 h incubation): 98.4%; IC50 (H69AR cells; [9]): 2130 pM; IC50 (H69AR cells; [10]): 2720 pM

Reference: patent US12144864B2, “Tubulysins and protein-tubulysin conjugates” (Regeneron Pharmaceuticals, Inc., priority 2018, dated 2024)
